#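 96-well plates; 48 h exposure; 5 concentrations. Endpoints by linear interpolation between flanking doses. Not reached: highest tested concentration assigned. Definition used: TGI = concentration required for complete inhibition of growth.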
# What was measured:
# Assay in all cases: NCI-60 cell line screen, 48 h
# [1] = system: K-562 leukemia
# [2] = system: SK-MEL-28 melanoma
# [3] = system: SF-268 CNS
# [4] = system: HL-60(TB) leukemia
# [5] = system: MDA-MB-435
# [6] = system: SF-539 CNS
# [7] = system: EKVX NSCLC
# [8] = system: COLO 205 colon
# [9] = system: NCI-H460 lung
# [10] = system: HCT-15 colon
# [11] = system: UACC-257 melanoma
# [12] = system: DU-145 prostate
# [13] = system: NCI-H226 lung
# [14] = system: RXF 393 renal
# [15] = system: UACC-62 melanoma
# [16] = system: SK-MEL-2 melanoma
# [17] = system: A549 NSCLC
# [18] = system: U251 CNS
# [19] = system: MALME-3M melanoma
# [20] = system: MCF7 breast
# [21] = system: A498 renal
# [22] = system: MDA-N
# [23] = system: RPMI-8226 leukemia
# [24] = system: CCRF-CEM leukemia
# [25] = system: SR leukemia
# [26] = system: HOP-92 NSCLC
# [27] = system: HS 578T breast
# [28] = system: SW-620 colon
# [29] = system: PC-3 prostate
# [30] = system: NCI-H522 lung
# [31] = system: BT-549 breast
# [32] = system: T-47D breast
# [33] = system: OVCAR-5 ovarian
# [34] = system: 786-0 renal
# [35] = system: OVCAR-8 ovarian
# [36] = system: HOP-62 NSCLC
# [37] = system: SK-OV-3 ovarian
# [38] = system: OVCAR-4 ovarian
# [39] = system: CAKI-1 renal
# [40] = system: IGROV1 ovarian
# [41] = system: ACHN renal
# [42] = system: SF-295 CNS
# [43] = system: OVCAR-3 ovarian
# [44] = system: SK-MEL-5 melanoma
# [45] = system: TK-10 renal
# [46] = system: KM12 colon
# [47] = system: MDA-MB-231 breast
# [48] = system: NCI/ADR-RES ovarian
# [49] = system: HCC-2998 colon
# [50] = system: HT29 colon
# [51] = system: LOX IMVI melanoma
# [52] = system: M14 melanoma
# [53] = system: SN12C renal
# [54] = system: HCT-116 colon
# [55] = system: UO-31 renal
# [56] = system: NCI-H23 lung
# [57] = system: SNB-19 CNS
# [58] = system: MOLT-4 leukemia
# [59] = system: SNB-75 CNS
structure (smiles),measurement,setting,value
CCCCCCc1nn2c(-c3ccncc3)nnc2s1,TGI,[1],> 10 µM
same,TGI,[2],> 10 µM
same,TGI,[3],> 10 µM
same,TGI,[4],> 10 µM
same,TGI,[5],> 10 µM
same,TGI,[6],> 10 µM
same,TGI,[7],> 10 µM
same,TGI,[8],> 10 µM
same,TGI,[9],> 10 µM
same,TGI,[10],> 10 µM
same,TGI,[11],> 10 µM
same,TGI,[12],> 10 µM
same,TGI,[13],> 10 µM
same,TGI,[14],> 10 µM
same,TGI,[15],> 10 µM
same,TGI,[16],> 10 µM
same,TGI,[17],> 10 µM
same,TGI,[18],> 10 µM
same,TGI,[19],> 10 µM
same,TGI,[20],> 10 µM
same,TGI,[21],> 10 µM
same,TGI,[22],> 10 µM
same,TGI,[23],> 10 µM
same,TGI,[24],> 10 µM
same,TGI,[25],> 10 µM
same,TGI,[26],> 10 µM
same,TGI,[27],> 10 µM
same,TGI,[28],> 10 µM
same,TGI,[29],> 10 µM
same,TGI,[30],> 10 µM
same,TGI,[31],> 10 µM
same,TGI,[32],> 10 µM
same,TGI,[33],> 10 µM
same,TGI,[34],> 10 µM
same,TGI,[35],> 10 µM
same,TGI,[36],> 10 µM
same,TGI,[37],> 10 µM
same,TGI,[38],> 10 µM
same,TGI,[39],> 10 µM
same,TGI,[40],> 10 µM
same,TGI,[41],> 10 µM
same,TGI,[42],> 10 µM
same,TGI,[43],> 10 µM
same,TGI,[44],> 10 µM
same,TGI,[45],> 10 µM
same,TGI,[46],> 10 µM
same,TGI,[47],> 10 µM
same,TGI,[48],> 10 µM
same,TGI,[49],> 10 µM
same,TGI,[50],> 10 µM
same,TGI,[51],> 10 µM
same,TGI,[52],> 10 µM
same,TGI,[53],> 10 µM
same,TGI,[54],> 10 µM
same,TGI,[55],2.89 µM
same,TGI,[56],> 10 µM
same,TGI,[57],> 10 µM
same,TGI,[58],> 10 µM
COC(=O)C1CC2C=CC1N(C(=O)OCc1ccccc1)C2 (stereo unspecified),TGI,[1],> 100 µM
same,TGI,[2],> 100 µM
same,TGI,[3],> 100 µM
same,TGI,[4],> 100 µM
same,TGI,[5],> 100 µM
same,TGI,[6],> 100 µM
same,TGI,[7],> 100 µM
same,TGI,[8],> 100 µM
same,TGI,[9],> 100 µM
same,TGI,[10],> 100 µM
same,TGI,[11],> 100 µM
same,TGI,[12],> 100 µM
same,TGI,[13],> 100 µM
same,TGI,[14],> 100 µM
same,TGI,[15],> 100 µM
same,TGI,[16],> 100 µM
same,TGI,[17],> 100 µM
same,TGI,[18],> 100 µM
same,TGI,[19],> 100 µM
same,TGI,[20],> 100 µM
same,TGI,[21],> 100 µM
same,TGI,[22],> 100 µM
same,TGI,[23],> 100 µM
same,TGI,[24],> 100 µM
same,TGI,[25],> 100 µM
same,TGI,[27],> 100 µM
same,TGI,[28],> 100 µM
same,TGI,[29],> 100 µM
same,TGI,[30],43.5 µM
same,TGI,[31],> 100 µM
same,TGI,[32],> 100 µM
same,TGI,[33],> 100 µM
same,TGI,[34],> 100 µM
same,TGI,[35],> 100 µM
same,TGI,[36],> 100 µM
same,TGI,[37],> 100 µM
same,TGI,[38],> 100 µM
same,TGI,[39],> 100 µM
same,TGI,[40],> 100 µM
same,TGI,[41],> 100 µM
same,TGI,[42],> 100 µM
same,TGI,[43],> 100 µM
same,TGI,[44],> 100 µM
same,TGI,[45],> 100 µM
same,TGI,[59],> 100 µM
same,TGI,[46],> 100 µM
same,TGI,[47],> 100 µM
same,TGI,[48],> 100 µM
same,TGI,[49],> 100 µM
same,TGI,[50],> 100 µM
same,TGI,[51],> 100 µM
same,TGI,[52],> 100 µM
same,TGI,[53],> 100 µM
same,TGI,[54],> 100 µM
same,TGI,[55],> 100 µM
same,TGI,[56],> 100 µM
same,TGI,[57],> 100 µM
same,TGI,[58],> 100 µM

# — PubChem BioAssay (NCI)
